ChEMBL document CHEMBL5321272 (J Med Chem, 2023)
pIC50: −log10 of the molar value. The source made the active and inactive calls. The calls are words filed in the database; no cut-off is given here.

Legend:
[1] = target: T1, Serine/threonine-protein kinase Chk1 (Homo sapiens, UniProt O14757)
T1 sequence (O14757 whole entry): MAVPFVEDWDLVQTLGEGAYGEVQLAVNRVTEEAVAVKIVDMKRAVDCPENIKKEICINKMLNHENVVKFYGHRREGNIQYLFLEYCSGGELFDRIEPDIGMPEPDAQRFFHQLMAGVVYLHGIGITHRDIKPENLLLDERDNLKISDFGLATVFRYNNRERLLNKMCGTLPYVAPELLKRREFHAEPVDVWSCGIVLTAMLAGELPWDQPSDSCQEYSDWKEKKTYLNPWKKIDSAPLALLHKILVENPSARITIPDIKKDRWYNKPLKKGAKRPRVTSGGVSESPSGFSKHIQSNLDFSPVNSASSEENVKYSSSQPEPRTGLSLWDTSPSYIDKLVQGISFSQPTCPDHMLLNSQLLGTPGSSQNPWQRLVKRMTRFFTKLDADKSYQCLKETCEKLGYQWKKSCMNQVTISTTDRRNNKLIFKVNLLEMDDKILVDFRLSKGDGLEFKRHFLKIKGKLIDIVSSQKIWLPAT
Description: Inhibition of CHK1 (unknown origin) using peptide substrate S1 and ATP as substrate incubated for 1 hr by HTRF assay

[2] = Tmax in ICR mouse at 10 mg/kg, po; type: ADME, organism-based; conditions: in vivo
BaF3 [3] = assay: Antiproliferative activity against mouse BaF3 cells harboring FLT3 D835V mutant assessed as reduction in cell viability incubated for 72 hrs by CellTiter 96 Aqueous One Solution Cell Proliferation Assay; type: functional, cell-based
BaF3 [4] = assay: Antiproliferative activity against mouse BaF3 cells harboring FLT3 D835F mutant assessed as reduction in cell viability incubated for 72 hrs by CellTiter 96 Aqueous One Solution Cell Proliferation Assay; type: functional, cell-based
[5] = target: Receptor-type tyrosine-protein kinase FLT3 (Homo sapiens, UniProt P36888, D835Y)
Description: Inhibition of FLT3 D835Y mutant (unknown origin) using peptide substrate TK-S and ATP as substrate incubated for 1 hr by HTRF assay

[6] = Cmax in ICR mouse at 10 mg/kg, po; type: ADME, organism-based; parameters: dose 10 mg/kg, route po; conditions: in vivo
[7] = Half life in ICR mouse at 10 mg/kg, po; type: ADME, organism-based; conditions: in vivo
[8] = AUC (infinity) in ICR mouse at 10 mg/kg, po; type: ADME, organism-based; parameters: dose 10 mg/kg, route po; conditions: in vivo
[9] = Selectivity ratio of IC50 for inhibition of c-KIT (unknown origin) to IC50 for inhibition of FLT3 D835Y mutant (unknown origin)
[10] = MRT (infinity) in ICR mouse at 10 mg/kg, po; type: ADME, organism-based; conditions: in vivo
MV4-11 = assay: cells; conditions: Homo sapiens, MV4-11, 72 h
Description: Antiproliferative activity against human MV4-11 cells assessed as reduction in cell viability incubated for 72 hrs by CellTiter 96 Aqueous One Solution Cell Proliferation Assay

hERG (KCNH2) = hERG (KCNH2) (Homo sapiens, UniProt Q12809); assay: Inhibition of hERG expressed in HEK293 cells at 20 uM by whole cell patch clamp analysis; type: toxicity, cell-based; conditions: HEK293 cells expressing hERG
Chain of hERG (KCNH2) (Q12809 whole entry): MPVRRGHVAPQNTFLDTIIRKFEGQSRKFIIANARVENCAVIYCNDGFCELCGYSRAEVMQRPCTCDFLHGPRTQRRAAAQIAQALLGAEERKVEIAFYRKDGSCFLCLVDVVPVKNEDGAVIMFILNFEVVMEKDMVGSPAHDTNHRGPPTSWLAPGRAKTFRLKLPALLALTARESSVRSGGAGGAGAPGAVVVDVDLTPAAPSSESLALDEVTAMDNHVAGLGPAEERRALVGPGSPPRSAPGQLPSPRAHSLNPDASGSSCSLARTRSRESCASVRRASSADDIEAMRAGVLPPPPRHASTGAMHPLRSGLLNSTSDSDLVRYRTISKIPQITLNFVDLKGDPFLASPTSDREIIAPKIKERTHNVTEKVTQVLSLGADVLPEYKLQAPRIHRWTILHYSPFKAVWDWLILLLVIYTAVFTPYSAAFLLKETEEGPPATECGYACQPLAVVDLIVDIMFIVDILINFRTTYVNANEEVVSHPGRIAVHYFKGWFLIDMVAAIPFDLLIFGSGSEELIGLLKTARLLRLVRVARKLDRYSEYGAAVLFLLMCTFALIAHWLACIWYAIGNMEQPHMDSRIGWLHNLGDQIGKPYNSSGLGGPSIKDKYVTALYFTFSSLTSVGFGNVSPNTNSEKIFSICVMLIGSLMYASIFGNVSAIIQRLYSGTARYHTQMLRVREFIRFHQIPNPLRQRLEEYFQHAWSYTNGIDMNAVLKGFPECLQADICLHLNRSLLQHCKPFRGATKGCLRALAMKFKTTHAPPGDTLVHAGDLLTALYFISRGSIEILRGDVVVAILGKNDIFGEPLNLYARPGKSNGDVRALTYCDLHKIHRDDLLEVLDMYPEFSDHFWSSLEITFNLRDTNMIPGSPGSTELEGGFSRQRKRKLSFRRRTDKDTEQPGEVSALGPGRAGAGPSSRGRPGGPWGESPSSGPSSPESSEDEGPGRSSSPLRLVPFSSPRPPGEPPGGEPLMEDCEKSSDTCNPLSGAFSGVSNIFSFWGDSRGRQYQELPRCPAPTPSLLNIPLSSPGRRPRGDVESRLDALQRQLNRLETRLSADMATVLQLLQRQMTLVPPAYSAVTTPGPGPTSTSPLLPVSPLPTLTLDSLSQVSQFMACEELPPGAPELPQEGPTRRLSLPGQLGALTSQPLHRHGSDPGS

[11] = AUC (last) in ICR mouse at 10 mg/kg, po; type: ADME, organism-based; parameters: dose 10 mg/kg, route po; conditions: in vivo
BaF3 [12] = assay: Antiproliferative activity against mouse BaF3 cells harboring FLT3 F691L mutant assessed as reduction in cell viability incubated for 72 hrs by CellTiter 96 Aqueous One Solution Cell Proliferation Assay; type: functional, cell-based
[13] = target: Mast/stem cell growth factor receptor Kit (Homo sapiens, UniProt P10721); assay: Inhibition of c-KIT (unknown origin) using peptide substrate TK-S and ATP as substrate incubated for 1 hr by HTRF assay; type: toxicity
Chain of Mast/stem cell growth factor receptor Kit (P10721 whole entry): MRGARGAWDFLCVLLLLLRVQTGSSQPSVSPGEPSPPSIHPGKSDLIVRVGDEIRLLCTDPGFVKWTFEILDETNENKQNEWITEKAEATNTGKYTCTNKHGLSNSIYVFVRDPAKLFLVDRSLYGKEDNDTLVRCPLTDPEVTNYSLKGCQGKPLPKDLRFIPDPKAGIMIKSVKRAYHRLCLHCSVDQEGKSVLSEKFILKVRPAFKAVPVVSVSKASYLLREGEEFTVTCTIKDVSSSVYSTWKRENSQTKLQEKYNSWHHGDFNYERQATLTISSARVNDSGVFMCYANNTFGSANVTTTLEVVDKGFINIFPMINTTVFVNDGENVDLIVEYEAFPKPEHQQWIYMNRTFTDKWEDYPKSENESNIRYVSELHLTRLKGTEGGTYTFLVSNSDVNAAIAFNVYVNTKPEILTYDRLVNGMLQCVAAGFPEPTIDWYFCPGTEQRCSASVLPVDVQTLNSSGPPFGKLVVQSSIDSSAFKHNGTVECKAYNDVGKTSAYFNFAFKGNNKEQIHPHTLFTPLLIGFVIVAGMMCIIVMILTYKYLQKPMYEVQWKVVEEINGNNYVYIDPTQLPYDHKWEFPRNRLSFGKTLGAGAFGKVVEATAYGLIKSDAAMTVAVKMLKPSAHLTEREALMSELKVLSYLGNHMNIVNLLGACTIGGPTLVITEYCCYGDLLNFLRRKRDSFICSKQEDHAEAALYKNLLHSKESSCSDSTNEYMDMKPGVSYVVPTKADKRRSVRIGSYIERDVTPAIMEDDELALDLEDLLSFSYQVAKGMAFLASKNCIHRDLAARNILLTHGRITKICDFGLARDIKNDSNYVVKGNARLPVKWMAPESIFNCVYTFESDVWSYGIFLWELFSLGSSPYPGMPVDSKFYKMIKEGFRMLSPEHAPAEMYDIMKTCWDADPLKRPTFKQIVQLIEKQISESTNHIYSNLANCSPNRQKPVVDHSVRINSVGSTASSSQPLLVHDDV

| SMILES | pIC50 [1] | Tmax [2] [h] | Activity (BaF3 [3]) | Activity (BaF3 [4]) | pIC50 [5] | Cmax [6] [µg/mL] | half-life [7] [h] | AUC(0-inf) [8] [µg·h/mL] | Ratio IC50 [9] | MRT inf [10] [h] | pIC50 (MV4-11) | inhibition at 20 µM (hERG (KCNH2)) [%] | AUC(0-t) [11] [µg·h/mL] | Activity (BaF3 [12]) | pIC50 [13] |
| --- | --- | --- | --- | --- | --- | --- | --- | --- | --- | --- | --- | --- | --- | --- | --- |
| CC(=O)N1Cc2ccc(Nc3ncc(C(F)(F)F)c(N[C@H]4CC[C@@H](N)CC4)n3)cc2C1 | 7.88 | 2 | Active | Active | 8.79 | 0.032 | 1.21 | 0.103 | 1370 | 2.29 | 9.47 | 28.3 | 0.0978 | Active | 5.65 |
| CC(C)(O)CC(=O)N1CCc2ccc(Nc3ncc(C(F)(F)F)c(N[C@H]4CC[C@@H](N)CC4)n3)cc2C1 | 8.00 |  | Active | Active | 8.68 |  |  |  | 1820 |  | 9.36 | 43.9 |  | Active | 5.42 |
| CC(=O)N1CCc2cc(Nc3ncc(C(F)(F)F)c(N[C@H]4CC[C@@H](N)CC4)n3)ccc2C1 | 8.12 | 2 | Active | Active | 9.06 | 0.555 | 0.81 | 1.1 | 1240 | 2.22 | 10.15 | 33.2 | 1.08 | Active | 5.97 |
| N[C@H]1CC[C@@H](Nc2nc(Nc3ccc4c(c3)CCN(C(=O)CO)C4)ncc2C(F)(F)F)CC1 | 7.75 | 1 | Active | Active | 9.34 | 0.162 | 2.3 | 0.411 | 4420 | 3.43 | 9.55 | 10.4 | 0.34 | Active | 5.69 |
| CC(C)(O)C(=O)N1CCc2ccc(Nc3ncc(C(F)(F)F)c(N[C@H]4CC[C@@H](N)CC4)n3)cc2C1 | 7.85 | 0.25 | Active | Active | 8.66 | 0.00406 | 9.08 | 0.0575 | 4030 | 13.9 | 9.03 | 28.1 | 0.0186 | Active | 5.05 |
| C[C@@H](O)C(=O)N1CCc2cc(Nc3ncc(C(F)(F)F)c(N[C@H]4CC[C@@H](N)CC4)n3)ccc2C1 | 7.97 | 2 | Active | Active | 8.90 | 0.0801 | 0.96 | 0.226 | 1440 | 2.05 | 9.68 | 14.6 | 0.22 | Active | 5.75 |
| CC(C)(O)CC(=O)N1Cc2ccc(Nc3ncc(C(F)(F)F)c(N[C@H]4CC[C@@H](N)CC4)n3)cc2C1 | 7.90 | 1 | Active | Active | 8.95 | 0.0425 | 0.81 | 0.104 | 2200 | 1.67 | 9.32 | 19.3 | 0.0996 | Active | 5.61 |
| CC(C)(O)C(=O)N1Cc2ccc(Nc3ncc(C(F)(F)F)c(N[C@H]4CC[C@@H](N)CC4)n3)cc2C1 | 7.87 | 2 | Active | Active | 8.87 | 0.263 | 0.63 | 0.604 | 2290 | 1.92 | 9.30 | 17.5 | 0.577 | Active | 5.51 |
| CN1CCc2cc(Nc3ncc(C(F)(F)F)c(N[C@H]4CC[C@@H](N)CC4)n3)ccc2C1=O | 7.93 |  | Active | Active | 8.94 |  |  |  | 4150 |  | 8.92 | 40.9 |  | Active | 5.32 |
| CC(=O)N1CCc2ccc(Nc3ncc(C(F)(F)F)c(N[C@H]4CC[C@@H](N)CC4)n3)cc2C1 | 8.12 |  | Active | Active | 8.91 |  |  |  | 3720 |  | 9.46 | 43.4 |  | Active | 5.34 |
| CC(C)(O)CC(=O)N1CCc2cc(Nc3ncc(C(F)(F)F)c(N[C@H]4CC[C@@H](N)CC4)n3)ccc21 | 7.72 |  | Active | Active | 8.54 |  |  |  | 1760 |  | 8.66 |  |  | Active | 5.30 |
